Data taken from a compilation of properties of binary mixtures (doi:10.1007/s10953-014-0137-8).

Assay: xn = mol fraction of the nth substance listed
Conditions: 101 kPa

## CCCC[n+]1ccn(C)c1.F[B-](F)(F)F + O
293.15 K, x2 = 0.0964
  speed of sound: 1580.4 m/s
293.15 K, x2 = 0.2639
  speed of sound: 1586.2 m/s
293.15 K, x2 = 0.3058
  electrical conductivity: 1 S/m
293.15 K, x2 = 0.3901
  speed of sound: 1590.2 m/s
293.15 K, x2 = 0.4991
  electrical conductivity: 1.67 S/m
293.15 K, x2 = 0.5121
  speed of sound: 1596.5 m/s
293.15 K, x2 = 0.6369
  speed of sound: 1601.7 m/s
293.15 K, x2 = 0.7002
  electrical conductivity: 3.02 S/m
  speed of sound: 1606.4 m/s
293.15 K, x2 = 0.7456
  speed of sound: 1608.6 m/s
293.15 K, x2 = 0.7866
  speed of sound: 1609.7 m/s
293.15 K, x2 = 0.9
  speed of sound: 1602.3 m/s
293.15 K, x2 = 0.9001
  electrical conductivity: 4.22 S/m
293.15 K, x2 = 0.9252
  electrical conductivity: 4.41 S/m
  speed of sound: 1593.6 m/s
293.15 K, x2 = 0.9496
  electrical conductivity: 4.31 S/m
  speed of sound: 1581.6 m/s
293.15 K, x2 = 0.9744
  electrical conductivity: 3.76 S/m
  speed of sound: 1559.6 m/s
298.15 K, x2 = 0.1014
  electrical conductivity: 0.595 S/m
298.15 K, x2 = 0.2639
  speed of sound: 1574.3 m/s
298.15 K, x2 = 0.3058
  electrical conductivity: 1.18 S/m
298.15 K, x2 = 0.3901
  speed of sound: 1579.2 m/s
298.15 K, x2 = 0.4991
  electrical conductivity: 1.97 S/m
298.15 K, x2 = 0.5121
  speed of sound: 1585.1 m/s
298.15 K, x2 = 0.6369
  speed of sound: 1591.6 m/s
298.15 K, x2 = 0.7002
  electrical conductivity: 3.41 S/m
  speed of sound: 1596.4 m/s
298.15 K, x2 = 0.7456
  speed of sound: 1598.6 m/s
298.15 K, x2 = 0.7866
  speed of sound: 1600.5 m/s
298.15 K, x2 = 0.9
  speed of sound: 1598.5 m/s
298.15 K, x2 = 0.9001
  electrical conductivity: 4.74 S/m
298.15 K, x2 = 0.9252
  electrical conductivity: 5.3 S/m
  speed of sound: 1592.2 m/s
298.15 K, x2 = 0.9744
  electrical conductivity: 4.22 S/m
  speed of sound: 1564.4 m/s
303.15 K, x2 = 0.0964
  speed of sound: 1557.7 m/s
303.15 K, x2 = 0.1014
  electrical conductivity: 0.709 S/m
303.15 K, x2 = 0.2639
  speed of sound: 1563 m/s
303.15 K, x2 = 0.3058
  electrical conductivity: 1.36 S/m
303.15 K, x2 = 0.3901
  speed of sound: 1567.7 m/s
303.15 K, x2 = 0.4991
  electrical conductivity: 2.2 S/m
303.15 K, x2 = 0.5121
  speed of sound: 1573.8 m/s
303.15 K, x2 = 0.6369
  speed of sound: 1581.8 m/s
303.15 K, x2 = 0.7002
  electrical conductivity: 3.97 S/m
  speed of sound: 1586.6 m/s
303.15 K, x2 = 0.7456
  speed of sound: 1590.2 m/s
303.15 K, x2 = 0.7866
  speed of sound: 1592.6 m/s
303.15 K, x2 = 0.8493
  electrical conductivity: 5.68 S/m
  speed of sound: 1595.5 m/s
303.15 K, x2 = 0.9001
  electrical conductivity: 5.67 S/m
303.15 K, x2 = 0.9496
  electrical conductivity: 5.39 S/m
  speed of sound: 1582.7 m/s
303.15 K, x2 = 0.9744
  electrical conductivity: 4.9 S/m
  speed of sound: 1567.9 m/s
308.15 K, x2 = 0.0964
  speed of sound: 1545.7 m/s
308.15 K, x2 = 0.1014
  electrical conductivity: 0.848 S/m
308.15 K, x2 = 0.2639
  speed of sound: 1551 m/s
308.15 K, x2 = 0.3058
  electrical conductivity: 1.51 S/m
308.15 K, x2 = 0.3901
  speed of sound: 1556.3 m/s
308.15 K, x2 = 0.4991
  electrical conductivity: 2.51 S/m
308.15 K, x2 = 0.5121
  speed of sound: 1561.8 m/s
308.15 K, x2 = 0.7866
  speed of sound: 1582.8 m/s
308.15 K, x2 = 0.8493
  electrical conductivity: 6.09 S/m
  speed of sound: 1587.5 m/s
308.15 K, x2 = 0.9
  speed of sound: 1588.3 m/s
308.15 K, x2 = 0.9001
  electrical conductivity: 6.39 S/m
308.15 K, x2 = 0.9252
  electrical conductivity: 6.6 S/m
  speed of sound: 1586 m/s
308.15 K, x2 = 0.9496
  electrical conductivity: 6.32 S/m
  speed of sound: 1581.6 m/s
308.15 K, x2 = 0.9744
  electrical conductivity: 5.08 S/m
  speed of sound: 1570.2 m/s
313.15 K, x2 = 0.0964
  speed of sound: 1534.6 m/s
313.15 K, x2 = 0.2639
  speed of sound: 1539.6 m/s
313.15 K, x2 = 0.3058
  electrical conductivity: 1.76 S/m
313.15 K, x2 = 0.3901
  speed of sound: 1544.9 m/s
313.15 K, x2 = 0.4991
  electrical conductivity: 2.79 S/m
313.15 K, x2 = 0.5121
  speed of sound: 1550.6 m/s
313.15 K, x2 = 0.6369
  speed of sound: 1559 m/s
313.15 K, x2 = 0.7002
  electrical conductivity: 4.67 S/m
  speed of sound: 1565 m/s
313.15 K, x2 = 0.7456
  speed of sound: 1569.3 m/s
313.15 K, x2 = 0.7866
  speed of sound: 1573.2 m/s
313.15 K, x2 = 0.9
  speed of sound: 1582.1 m/s
313.15 K, x2 = 0.9001
  electrical conductivity: 6.94 S/m
313.15 K, x2 = 0.9252
  electrical conductivity: 7.12 S/m
  speed of sound: 1581.6 m/s
313.15 K, x2 = 0.9496
  electrical conductivity: 6.65 S/m
  speed of sound: 1579.4 m/s
318.15 K, x2 = 0.1014
  electrical conductivity: 1.12 S/m
318.15 K, x2 = 0.4991
  electrical conductivity: 3.1 S/m
318.15 K, x2 = 0.5121
  speed of sound: 1539.3 m/s
318.15 K, x2 = 0.7002
  electrical conductivity: 5.29 S/m
  speed of sound: 1554 m/s
318.15 K, x2 = 0.7456
  speed of sound: 1558.4 m/s
318.15 K, x2 = 0.7866
  speed of sound: 1562 m/s
318.15 K, x2 = 0.8493
  electrical conductivity: 7.3 S/m
  speed of sound: 1570.2 m/s
318.15 K, x2 = 0.9001
  electrical conductivity: 7.66 S/m
318.15 K, x2 = 0.9252
  electrical conductivity: 7.99 S/m
  speed of sound: 1576.4 m/s
318.15 K, x2 = 0.9496
  electrical conductivity: 7.34 S/m
  speed of sound: 1576.4 m/s
318.15 K, x2 = 0.9744
  electrical conductivity: 6.16 S/m
  speed of sound: 1571.6 m/s
323.15 K, x2 = 0.0964
  speed of sound: 1511.5 m/s
323.15 K, x2 = 0.1014
  electrical conductivity: 1.37 S/m
323.15 K, x2 = 0.2639
  speed of sound: 1516.4 m/s
323.15 K, x2 = 0.3058
  electrical conductivity: 2.3 S/m
323.15 K, x2 = 0.3901
  speed of sound: 1522.1 m/s
323.15 K, x2 = 0.4991
  electrical conductivity: 3.31 S/m
323.15 K, x2 = 0.5121
  speed of sound: 1528 m/s
323.15 K, x2 = 0.6369
  speed of sound: 1534.5 m/s
323.15 K, x2 = 0.7002
  electrical conductivity: 5.74 S/m
  speed of sound: 1542.4 m/s
323.15 K, x2 = 0.7456
  speed of sound: 1546.8 m/s
323.15 K, x2 = 0.7866
  speed of sound: 1552.2 m/s
323.15 K, x2 = 0.9
  speed of sound: 1567.8 m/s
323.15 K, x2 = 0.9001
  electrical conductivity: 8.59 S/m
323.15 K, x2 = 0.9252
  electrical conductivity: 8.71 S/m
  speed of sound: 1570.5 m/s
